Results on 11 molecules are retold here after ChEMBL document CHEMBL1201862, “PubChem BioAssay data set” (2004).

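Values below derive from 48-hour exposures of cells grown in 96-well plates, with endpoints linearly interpolated between the two concentrations bracketing the appropriate inhibition level. The concentration for 50% growth inhibition is given as GI50.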 The source made the active and inactive calls. Rule as the data show it: active = GI50 up to about 1.1 µM and inactive = higher. Non-standard residues stand in square brackets, D forms with d. Residues, ends and D or L forms follow the SMILES beside them. *: point of attachment. Bn2Val = CC(C)[C@@H](C(=O)*)N(Cc1ccccc1)Cc1ccccc1; NMeV = CN[C@H](C(=O)O)C(C)C; X32 = COc1ccc(CN*)c(OC)c1; dNMeA = CN[C@H](C)C(=O)O

What all share (experiment): NCI tumour cell line growth inhibition, 48 h
The test system of experiment [1] is RXF 393.
The subject of experiment [2] is SF-539.
Experiment [3] relates to Malme-3M.
Experiment [4] relates to SN12C.
Experiment [5] concerns A498.
The subject of experiment [6] is HT-29.
In experiment [7] the test system is A549.
Experiment [8] concerns CCRF-CEM.
Experiment [9] has as its system 786-0.
Experiment [10] concerns SR.
Experiment [11] has as its system SW-620.
For experiment [12], the system named is COLO 205.
In experiment [13] the test system is UACC-257.
The subject of experiment [14] is SK-MEL-28.
Experiment [15] concerns Hs-578T.
Experiment [16] relates to MOLT-4.
Experiment [17] concerns CAKI-1.
Experiment [18] relates to HCT-15.
For experiment [19], the system named is UACC-62.
Experiment [20] relates to SNB-75.

Take `C=C1CC[C@]2(C)[C@H](CC[C@@]34C[C@@H](CC[C@H]32)[C@@H](C(=O)O)C4)C1(C)C`: the GI50 in experiment [1] is > 12.5 µM (inactive); in [2] it was 6.19 µM (inactive); in [3], > 12.5 µM (inactive); in [4], > 12.5 µM (inactive); in [5], 3.69 µM (inactive); in [6] it was 5.35 µM (inactive). Besides, the GI50 in experiment [7] is 5.22 µM (inactive); in [8], 7.05 µM (inactive); in experiment [9], 7.83 µM (inactive); in experiment [10], 6.37 µM (inactive); in experiment [11], > 12.5 µM (inactive); in [12], 4.54 µM (inactive). For the same molecule, the GI50 is > 12.5 µM (inactive) in [13]; > 12.5 µM (inactive) in experiment [14]; 6.68 µM (inactive) in [15]; 6.17 µM (inactive) in experiment [16]; > 12.5 µM (inactive) in [17]; greater than 12.5 µM in experiment [18]. In addition, in experiment [19], the GI50 is > 12.5 µM (inactive).
Consider `CCOc1cc(/C=C2\N=C(c3ccccc3)N(c3nc4ccccc4s3)C2=O)ccc1O`, for which the GI50 in experiment [1] is > 100 µM (inactive); in experiment [20] it was 51.2 µM (inactive); in [2] it was 50 µM (inactive); in experiment [5], 45.4 µM (inactive); in experiment [6], 64.1 µM (inactive); in experiment [8], 34.3 µM (inactive). In addition, the GI50 in experiment [9] was 61.1 µM (inactive); in experiment [10] it was 29.9 µM (inactive); in [11], 47.9 µM (inactive); in experiment [13], 48.8 µM (inactive); in [14] it was 64.4 µM (inactive); in experiment [15] it was 29 µM (inactive). Moreover, the GI50 in experiment [16] was 19.5 µM (inactive); in [17] it was 39.9 µM (inactive); in experiment [18], 24.5 µM.
On to `CC(C)(C)C1CCC2c3c([nH]c4ccccc34)C3C(=O)N(c4ccc([N+](=O)[O-])cc4)C(=O)C3C2C1` (centres undefined), for which the GI50 in [1] was 10.4 µM (inactive); in experiment [20] it was 16.9 µM (inactive); in [2], 20.7 µM (inactive); in experiment [3] it was 20.5 µM (inactive); in experiment [4], 4.86 µM (inactive); in experiment [5], 24.3 µM (inactive). For the same molecule, the GI50 in experiment [6] was 3.89 µM (inactive); in experiment [7], 10.8 µM (inactive); in experiment [8] it was 8.51 µM (inactive); in experiment [9] it was 5.11 µM (inactive); in [10] it was 3.27 µM (inactive); in experiment [11], 21 µM (inactive). Further, the GI50 in experiment [12] is 8.71 µM (inactive); in [13] it was 29.1 µM (inactive); in experiment [14], 96.6 µM (inactive); in experiment [15], 11.4 µM (inactive); in experiment [16] it was 5.28 µM (inactive); in experiment [18] it was 18.1 µM. In addition, the GI50 in experiment [19] was 3.12 µM (inactive).
With `C[C@@H](c1ccccc1)N(CC#N)[C@H]1CCC[C@]1(O)/C=C/c1ccc2c(c1)OCO2`, the GI50 is > 25 µM (inactive) in experiment [1]; > 25 µM (inactive) in experiment [20]; > 25 µM (inactive) in [3]; > 25 µM (inactive) in experiment [4]; 3.48 µM (inactive) in experiment [5]; > 25 µM (inactive) in experiment [6]. Besides, the GI50 in [7], in [8], in experiment [9], in experiment [10], in experiment [12] and in [13] was > 25 µM (inactive) throughout. Besides, the GI50 in [14] is > 25 µM (inactive); in experiment [15], > 25 µM (inactive); in experiment [16] it was > 25 µM (inactive); in [17], > 25 µM (inactive); in [18], greater than 25 µM; in experiment [19] it was 3.59 µM (inactive).
For the molecule `CN(/N=C/c1ccccc1O)c1ccc2ccccc2n1`, the GI50 is 30.8 µM (inactive) in [1]; 22.6 µM (inactive) in [2]; 21.6 µM (inactive) in experiment [3]; 32.4 µM (inactive) in [4]; 20 µM (inactive) in experiment [5]; 29.8 µM (inactive) in [6]. The GI50 in [7] is 16.3 µM (inactive); in [8], 12.9 µM (inactive); in experiment [9], 17.7 µM (inactive); in experiment [10], 19.7 µM (inactive); in [11], 42.3 µM (inactive); in [12], 56.1 µM (inactive). Also, the GI50 in experiment [13] is 52.8 µM (inactive); in [14], 65.9 µM (inactive); in experiment [15], 26.7 µM (inactive); in experiment [16], 24 µM (inactive); in experiment [17], 33.9 µM (inactive); in experiment [18] it was 12.5 µM. In addition, the GI50 in [19] is 35.2 µM (inactive).
Turning to `CC#CC(O)(C(=O)OCCCN(C)C)C1CCCCC1` (centres undefined), the GI50 in experiment [1], in experiment [20], in experiment [2], in experiment [3], in experiment [4] and in experiment [5] was > 100 µM (inactive) throughout. Also, the GI50 in [6], in experiment [7], in [8], in [9], in experiment [10] and in [11] was > 100 µM (inactive) each time. The GI50 in experiment [12] was > 100 µM (inactive); in [13], > 100 µM (inactive); in experiment [14], > 100 µM (inactive); in [15] it was > 100 µM (inactive); in experiment [16] it was > 100 µM (inactive); in [18] it was greater than 100 µM. Further, the GI50 in experiment [19] is > 100 µM (inactive).
Regarding `CCc1n[nH]c(=O)n1NC(=O)/C=C\C(=O)O`, the GI50 in experiment [1], in experiment [20], in experiment [2], in [3], in [4] and in experiment [5] was > 100 µM (inactive) each time. Further, the GI50 in experiment [6], in experiment [7], in experiment [8], in experiment [9], in experiment [10] and in [12] was > 100 µM (inactive) each time. Besides, the GI50 in experiment [13] is > 100 µM (inactive); in experiment [15], > 100 µM (inactive); in [16] it was > 100 µM (inactive); in experiment [17] it was > 100 µM (inactive); in experiment [18], greater than 100 µM; in [19], > 100 µM (inactive).
For the molecule `Cc1nc(O)c2c3c(sc2n1)CCCC3`, the GI50 was > 100 µM (inactive) in [1]; > 100 µM (inactive) in [20]; 56.8 µM (inactive) in experiment [2]; > 100 µM (inactive) in experiment [3]; 51.5 µM (inactive) in experiment [4]; > 100 µM (inactive) in experiment [5]. The GI50 is 54.7 µM (inactive) in experiment [6]; 78.5 µM (inactive) in experiment [7]; 35.9 µM (inactive) in [9]; 27 µM (inactive) in experiment [10]; > 100 µM (inactive) in experiment [11]; > 100 µM (inactive) in experiment [12]. The GI50 was > 100 µM (inactive) in experiment [13]; > 100 µM (inactive) in experiment [14]; > 100 µM (inactive) in [15]; > 100 µM (inactive) in experiment [16]; > 100 µM (inactive) in experiment [17]; greater than 100 µM in experiment [18]. For the same molecule, the GI50 in [19] is 58.2 µM (inactive).
With `COc1ccc(CNC(=O)[C@@H]2CCCN2C(=O)[C@@H](C)N(C)C(=O)[C@H](C(C)C)N(C)C(=O)[C@@H](NC(=O)[C@H](C(C)C)N(Cc2ccccc2)Cc2ccccc2)C(C)C)c(OC)c1` (Bn2Val-V[NMeV][dNMeA]P-X32), the GI50 was 1.85 µM (inactive) in [1]; 1.52 µM (inactive) in experiment [20]; 2.44 µM (inactive) in experiment [2]; 5.12 µM (inactive) in [3]; 1.78 µM (inactive) in experiment [4]; 2.96 µM (inactive) in [5]. For the same molecule, the GI50 is 1.74 µM (inactive) in experiment [6]; 3.77 µM (inactive) in experiment [7]; 3.28 µM (inactive) in experiment [9]; 2.15 µM (inactive) in experiment [10]; 3.5 µM (inactive) in experiment [11]; 2.29 µM (inactive) in experiment [12]. The GI50 was 3.44 µM (inactive) in [13]; 3.29 µM (inactive) in experiment [14]; 7.53 µM (inactive) in [15]; 4.04 µM (inactive) in [17]; 3.05 µM in experiment [18]; 4.18 µM (inactive) in experiment [19].
In the case of `CC(=O)c1c(O)cc(O)c(-c2c(C)cc(O)c3c2C(=O)c2cccc(O)c2C3=O)c1O`, the GI50 is 15.2 µM (inactive) in experiment [20]; 15.3 µM (inactive) in [2]; 11.9 µM (inactive) in [3]; 19.1 µM (inactive) in experiment [4]; 15.6 µM (inactive) in [5]; 17.1 µM (inactive) in experiment [6]. The GI50 in [7] is 14.6 µM (inactive); in experiment [9], 17.1 µM (inactive); in [10] it was 16.3 µM (inactive); in [11], 18.7 µM (inactive); in experiment [13] it was 19.9 µM (inactive); in experiment [14], 20.7 µM (inactive). Besides, the GI50 in experiment [15] is 7.48 µM (inactive); in [16], 10.8 µM (inactive); in [18] it was 14.1 µM; in experiment [19], 14.5 µM (inactive).
For the molecule `CCOC(=O)/C(=C\c1ccc(CO)o1)P(=O)(OCC)OCC`, the GI50 in experiment [1] is 34.3 µM (inactive); in experiment [20], 33 µM (inactive); in [2], 19.7 µM (inactive); in experiment [3], 20.8 µM (inactive); in [4], 30.5 µM (inactive); in [5], 55.3 µM (inactive). Besides, the GI50 was 33.2 µM (inactive) in experiment [6]; > 100 µM (inactive) in experiment [7]; 19.7 µM (inactive) in experiment [9]; 41.9 µM (inactive) in experiment [10]; 27.4 µM (inactive) in experiment [11]; 23 µM (inactive) in [12]. For the same molecule, the GI50 is 44.6 µM (inactive) in experiment [13]; 30.7 µM (inactive) in [14]; 36.1 µM (inactive) in experiment [15]; 56.8 µM (inactive) in [16]; 55.7 µM (inactive) in experiment [17]; 18.4 µM in experiment [18]. Further, in experiment [19], the GI50 is 38.7 µM (inactive).
